Reference: PubChem BioAssay (NCI)
Values joined by “and” are separate entries in the source; they are usually repeats but may differ in a detail not shown here. Equal entries are not always repeated.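 These data come from cells grown in 96-well plates and exposed to compound for 48 hours at five concentrations. GI50: concentration for 50% inhibition of growth. TGI denotes the concentration required for complete inhibition of growth.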

Key:
Experiment in all cases: NCI tumour cell line growth inhibition, 48 h
NCI-H522 lung = tested on: NCI-H522 lung
SF-268 CNS = tested on: SF-268 CNS
ACHN renal = tested on: ACHN renal
HCT-15 colon = tested on: HCT-15 colon
LOX IMVI melanoma = tested on: LOX IMVI melanoma
UACC-257 melanoma = tested on: UACC-257 melanoma
786-0 renal = tested on: 786-0 renal
K-562 leukemia = tested on: K-562 leukemia
SK-MEL-2 melanoma = tested on: SK-MEL-2 melanoma
A549 NSCLC = tested on: A549 NSCLC

Row | SMILES | TGI (NCI-H522 lung) | TGI (SF-268 CNS) | TGI (ACHN renal) | TGI (HCT-15 colon) | TGI (LOX IMVI melanoma) | TGI (UACC-257 melanoma) | TGI (786-0 renal) | TGI (K-562 leukemia) | TGI (SK-MEL-2 melanoma) | TGI (A549 NSCLC) | GI50 (NCI-H522 lung) | GI50 (SF-268 CNS) | GI50 (ACHN renal) | GI50 (HCT-15 colon) | GI50 (LOX IMVI melanoma) | GI50 (UACC-257 melanoma) | GI50 (786-0 renal) | GI50 (K-562 leukemia) | GI50 (SK-MEL-2 melanoma) | GI50 (A549 NSCLC)
1 | COC(=O)C12C3C4C5C3(C#N)C1C5(C(=O)OC)C42C(=O)N(C(C)C)C(C)C (centres undefined) | > 53.4 µM | > 100 µM | > 100 µM | > 60.4 µM | > 100 µM | > 100 µM | > 100 µM | > 73.8 µM | > 100 µM | > 100 µM | – | – | – | – | – | – | – | – | – | –
2 | COc1cc2c(cc1OCCCCCCN1CCN(c3ncnc4ccccc34)CC1)N=CC1CCCN1C2=O (centres undefined) | 0.135 µM | 3.48 µM | 12.3 µM | 2.39 µM | 1 µM | 14.1 µM | 0.649 µM | – | 1.83 µM | 5.55 µM | < 0.0145 µM | 0.201 µM | 0.345 µM | 0.493 µM | 0.0319 µM | 0.237 µM | 0.141 µM | 0.0446 µM | 0.195 µM | 0.275 µM
3 | CCOc1ccc(Nc2nc(-c3ccc4c(c3)NC(=O)CO4)cs2)cc1 | 37.1 µM | > 100 µM | > 100 µM | > 100 µM | > 100 µM | 11 µM | > 100 µM | > 100 µM | 13.8 µM | > 100 µM | 4.27 µM | 36.7 µM | 6.96 µM | 4.74 µM | 5.33 µM | 3.37 µM | 14.3 µM | 4.86 µM | 3.98 µM | 5.14 µM
4 | COc1ccc2c(CN3CCC[C@H]3C(=O)O)cc3cc4c(cc3c2c1)OCO4 | 95.2 µM | 67.1 µM | > 100 µM | > 100 µM | 43.6 µM | 45.8 µM | > 100 µM | > 100 µM | 29.8 µM | > 100 µM | 11.1 µM | 9.87 µM | 5.97 µM | 19.1 µM | 5.06 µM | 12.6 µM | 16.2 µM | 20.2 µM | 12.6 µM | 21.5 µM
5 | Cc1cccc(Cl)c1NC(=O)/C=C/c1ccccc1 | > 100 µM | > 100 µM | > 100 µM | > 100 µM | > 100 µM | > 100 µM | > 100 µM | > 100 µM | > 100 µM | > 100 µM | – | – | – | – | – | – | – | – | – | –
6 | C=C[C@H]1CCC/C=C/[C@@H]2C[C@H](O)C[C@H]2[C@H](O)/C=C/C(=O)O1 | 0.356 µM | > 100 µM | > 100 µM | > 34.7 µM | 0.0528 µM | > 100 µM | 0.0377 µM | > 100 µM | 0.0944 µM | > 100 µM | 0.0673 µM | 0.038 µM | 0.0404 µM | 0.0325 µM | 0.0222 µM | 0.0864 µM | 0.0184 µM | 0.0478 µM | 0.0303 µM | 0.0415 µM
7 | C=C1C(=O)[C@@]23CC1C(O)[C@@H](OC(C)=O)[C@@H]2C1(C)C(OC(C)=O)C[C@@H](OC(C)=O)C(C)(C)[C@@H]1C[C@H]3OC(C)=O (some centres undefined) | 2.64 µM and 1.44 µg/mL | > 10 µM and 28.3 µg/mL | > 10 µM and 16.6 µg/mL | > 10 µM and 8.61 µg/mL | > 10 µM and 3.31 µg/mL | > 10 µM and 5.06 µg/mL | > 10 µM and 3.97 µg/mL | 3.71 µM and 2.86 µg/mL | > 10 µM and 5.65 µg/mL | > 10 µM and 30 µg/mL | 1.31 µM and 0.288 µg/mL | > 10 µM and 6.82 µg/mL | 4.26 µg/mL | 2.69 µg/mL | 1.82 µg/mL | 3.55 µM and 2.25 µg/mL | 1.81 µg/mL | 1.55 µM and 0.573 µg/mL | > 10 µM and 2.46 µg/mL | > 10 µM and 13.9 µg/mL
8 | CCOC(=O)C1=C(Nc2ccc(Cl)cc2Cl)OC/C1=N\NS(=O)(=O)c1ccc(C)cc1 | > 100 µM | > 100 µM | > 100 µM | > 100 µM | > 100 µM | > 100 µM | > 100 µM | > 100 µM | > 100 µM | > 100 µM | – | – | – | – | – | – | – | – | – | –
9 | C=C(C)CN(CC#N)CC(=C)C | > 100 µM | > 100 µM | > 100 µM | > 100 µM | > 100 µM | > 100 µM | > 100 µM | > 100 µM | > 100 µM | > 100 µM | – | – | – | – | – | – | – | – | – | –
10 | Cc1ccc(-c2nc(N)nc3c2nnn3Cc2cccc(CO[C@H]3CCOC3)n2)o1 | > 100 µM | > 100 µM | > 100 µM | > 100 µM | > 100 µM | > 100 µM | > 100 µM | > 100 µM | > 100 µM | > 100 µM | > 100 µM | > 100 µM | > 100 µM | > 100 µM | > 100 µM | > 100 µM | > 100 µM | > 100 µM | > 100 µM | > 100 µM
11 | COC(=O)c1c2c(c(C)[n+]([O-])c1C)C(=O)C=C(NCc1ccc(OC)cc1)C2=O | 5.16 µM | 8.27 µM | 5.23 µM | 4.19 µM | 3.77 µM | 2.08 µM | 23.3 µM | 15.3 µM | 6.64 µM | 6.44 µM | 1.82 µM | 2.24 µM | 1.98 µM | 0.962 µM | 0.911 µM | 0.758 µM | 5.48 µM | 2.68 µM | 2.14 µM | 2.21 µM
12 | O=C1c2cc([N+](=O)[O-])ccc2-c2cccc(F)c21 | > 100 µM | > 100 µM | > 100 µM | > 100 µM | > 100 µM | > 100 µM | > 100 µM | > 100 µM | 55.7 µM | > 100 µM | – | – | – | – | – | – | – | – | – | –
13 | NC1CCCCC1N.O=S(=O)([O-])CCCN1CCOCC1.O=S(=O)([O-])CCCN1CCOCC1.[Pt+4] | 20.6 µM | > 100 µM | > 100 µM | > 56.6 µM | > 59.2 µM | > 100 µM | > 100 µM | 30.5 µM | 44.5 µM | > 100 µM | 4.64 µM | 9.92 µM | 8.17 µM | 8.4 µM | 16.2 µM | 54.6 µM | 5.7 µM | 7.29 µM | 13.3 µM | 4.72 µM
14 | COc1ccc(C(=O)OC2C=COC(C)C2OC(=O)c2ccc(OC)cc2)cc1 (centres undefined) | 30.6 µM | 44.7 µM | > 100 µM | 33 µM | 29.8 µM | > 72.4 µM | > 86.6 µM | 63.9 µM | 43.2 µM | > 100 µM | – | – | – | – | – | – | – | – | – | –
